Laboratory results as given in patent publication US7723468B2, “Antimicrobial peptide, compositions, and uses therefor” (De Sao Paulo Universida de, priority 2000, dated 2010).
Bridges are numbered along the chain shown (N, C = ends).

Columns and labels:
Type in all cases: cell-based
[1] = system: Gram-positive and Gram-negative bacteria and yeast; assay: Antimicrobial activity of head-to-tail cyclic gomesin, same growth inhibition assay (FIG. 3); settings: tested Gram-positive and Gram-negative bacteria and yeast
Experimental: (§1) The evaluation of activity against bacteria and fungi was done as described in J. Biol. Chem., 271, 29537-29544 (1996).
On FIG. 1, n.d. means “non-detected” for the tested concentration range of up to 100 μM for gomesin, while n.m. means not measured. The minimal inhibitory concentrations (MICs) of synthetic peptides are expressed as the [A]-[B] interval of concentrations, where [A] is the highest concentration tested at which the microorganisms are growing and [B] is the lowest concentration that causes 100% growth inhibition.
The antimicrobial activity of the head-to-tail cyclic gomesin peptide (SEQ ID No 3) was evaluated using the same assay described above.

[2] = system: bacteria, fungi and yeast; assay: Liquid growth inhibition assay, MIC activity spectrum (FIG. 1)
Experimental: The active fraction against the tested bacterium Micrococcus luteus of hemocytes (AGH2) is additionally purified by filtration chromatography. Elution is made under isocratic conditions with 30% acetonitrile in acidic water at a flow rate of 0.4 ml/min. HPLC (high performance liquid chromatography) purification was made at room temperature. The effluent column was monitored for its absorbance at 225 nm. Fractions corresponding to absorbance peaks were collected, concentrated under vacuum and reconstituted in MilliQ water. Anti-bacterial activity of the collected fractions was monitored by a liquid growth inhibition assay according to J. Biol. Chem., 268, 14893-14897 (1993), using Micrococcus luteus as the test microorganism.
as §1
On FIG. 1, n.d. means “non-detected” for the tested concentration range of up to 100 μM for gomesin, while n.m. means not measured. The minimal inhibitory concentrations (MICs) of synthetic peptides are expressed as the [A]-[B] interval of concentrations, where [A] is the highest concentration tested at which the microorganisms are growing and [B] is the lowest concentration that causes 100% growth inhibition. […]

[3] = system: Leishmania (leishmania) amazonensis (MRPO/BR/72/M 1841-LV-79); assay: Anti-parasitic activity, MTT cell viability test (FIG. 4); settings: incubation one hour at 22° C., 0.1 to 100 μM
Experimental: (§2) As an example of anti-parasitic activity, the cell viability of Leishmania (leishmania) amazonensis (MRPO/BR/72/M 1841-LV-79) and Trypanosoma cruzi were evaluated, by making use of the MTT [3-(4,5-dimethyltiazolyl-2)-2,5-diphenyl tetrazolio bromide] test as described in J. Immunol. Methods 65, 55-63 (1983) and adapted for Leishmania spp, according to J. Immunol. Methods 127, 11-18 (1990).
(§3) Quantities from 0.1 to 100 μM were tested against Leishmania (leishmania) amazonensis and Trypanosoma cruzi. […] The death of parasites (%) was measured by making use of the MTT assay as described in J. Immunol. Methods 65, 55-63 (1983) and adapted for Leishmania spp, according to J. Immunol. Methods 127, 11-18 (1990).

Trypanosoma cruzi = assay: as above; settings: incubation one hour at 22° C., 0.1 to 100 μM
Experimental: as §2, §3

Substance | antimicrobial activity compared with native gomesin [1] | MIC (minimum inhibitory concentration) ([2]; for half of the 24 susceptible strains) | strains susceptible to gomesin ([2]; out of the 27 strains tested, concentration range up to 100 μM) | viability of parasites (death of parasites, %) [3] | viability of parasites (death of parasites, %) (Trypanosoma cruzi)
QCRRLCYKQRCVTYCRGR (cyclo(QCRRLCYKQRCVTYCRGR); disulfide 6-11, 2-15; SMILES CC(C)C[C@@H]1NC(=O)[C@H](CCCNC(=N)N)NC(=O)[C@H](CCCNC(=N)N)NC(=O)[C@@H]2CSSC[C@H](NC(=O)[C@H](Cc3ccc(O)cc3)NC(=O)[C@H]([C@@H](C)O)NC(=O)[C@H](C(C)C)NC(=O)[C@@H]3CSSC[C@H](NC1=O)C(=O)N[C@@H](Cc1ccc(O)cc1)C(=O)N[C@@H](CCCCN)C(=O)N[C@@H](CCC(N)=O)C(=O)N[C@@H](CCCNC(=N)N)C(=O)N3)C(=O)N[C@@H](CCCNC(=N)N)C(=O)NCC(=O)N[C@@H](CCCNC(=N)N)C(=O)N[C@@H](CCC(N)=O)C(=O)N2) [head-to-tail cyclic gomesin, gomesin with closed ends] | identical to the activity of native gomesin | – | – | – | –
ZCRRLCYKQRCVTYCRGRa [gomesin] | – | ≤ 1.6 µM | 24 strains | dependent on the concentration of gomesin | dependent on the concentration of gomesin
